Source: patent US4478763A, “Process for preparing alpha-fluorinated alkanediphosphonates” (Univ. of Southern California, priority 1982, dated 1984)
Entries after “also recorded” stand apart in the source; their conditions may differ. Where two headings read alike, the source gives them in different places.

Tests used:
[1] = cited from earlier work
[2] = Acidity comparison among methanediphosphonic acids; format: physicochemical; details: for acidity compared with other methanediphosphonic acids (in words): qualitative comparison
Method: (§1) The effect of fluorine substitution on the acidity of methanediphosphonic acid is of interest. Using the empirical equations developed by R. G. Grabenstetter et al. J. Phys. Chem. 71, 4194 (1967), estimated pK° values for mono and difluoro methanediphosphonic acid were calculated and compared with experimental pK° data for the parent acid. It should be noted that the cited work set forth two alternative Taft equations for pK°4 on giving an optimal fit with bulkier substitution (e.g., CH3) and one to fit data for less sterically hindering substituents (e.g., H).

[3] = Estimation of pK° values of mono and difluoro methanediphosphonic acid from 31P chemical shift data; format: physicochemical; details: calculated from 31P chemical shift data
Method: as §1

[4] = system: bone resorption; test: Inhibition of bone resorption; details: compared with known drugs; no test data given
[5] = experimental pK° data, parent acid
[6] = dichloro methanediphosphonic acid

## O=P(O)(O)CP(=O)(O)O [MDPA, methanediphosphonic acid]
[1]; [5]
  pK° 2: 3.1
  pK°3: 7.4
  pK° 4: 11.0

## O=P(O)(O)C(Cl)(Cl)P(=O)(O)O [dichloro methanediphosphonic acid]
[2]
  acidity compared with other methanediphosphonic acids (in words): weaker than the difluoro substituted acid
[1]; [6]
  pK°3: 6.1
  pK° 4: 9.8

## O=P(O)(O)C(F)(F)P(=O)(O)O [difluoro MDPA, Difluoro Methanediphosphonic Acid]
[2]; more acidic than the unfluorinated parent acid, calculated
  acidity of the fourth proton relative to unfluorinated parent acid: 100 fold
[2]
  acidity compared with other methanediphosphonic acids (in words): strongest of the halomethanediphosphonic acids
[3]; read-out: pK° 2
  pKa: 2.57
[3]; read-out: pK° 3
  pKa: 6.08
[3]; read-out: pK° 4
  pKa: 9.07
[4]
  inhibition of bone resorption: inhibits bone resorption at least as effectively as known drugs

## O=P(O)(O)C(F)P(=O)(O)O [monofluoro MDPA, Fluoro Methanediphosphonic Acid]
[2]; listed as monofluoro acid
  acidity compared with other methanediphosphonic acids (in words): one order of magnitude below that of the parent acid; also recorded: comparable to that of dichloro methanediphosphonic acid
[3]; listed as monofluoro acid
  pK° 4: approximately 10.1
[3]; read-out: pK° 2
  pKa: 2.78
[3]; read-out: pK° 3
  pKa: 6.62
[3]; read-out: pK° 4
  pKa: 10.1
